This test has as its target Interleukin-1 receptor-associated kinase 1 (Homo sapiens, UniProt P51617). Description: IRAK1 Enzymatic Assay: IRAK1 is a human purified recombinant enzyme (His-TEV-IRAK1 (194-712)) In this assay, IRAK-1 hydrolyses ATP and autophosphorylates.Measurement of IRAK-1 inhibition is performed in streptavidin coated 384 well FlashPlate (PerkinElmer #SMP410A).His-TEV-IRAK-1 (15 ng/well), ATP (1 μM, [33P]ATP 0.25 μCi/well) and compounds in DMSO (range of concentrations from 20 μM to 1 nM) or controls (2% DMSO) are incubated for 3 hours at 30° C. in assay buffer: Hepes pH7.0 50 mM, Fatty acid-free BSA 0.1%, Dithiothreitol DTT 2 mM, MgCl2 10 mM, EGTA 0.5 mM, Triton-X-100 0.01%. Kinase reaction is stopped by addition of EDTA. Supernatant is discarded, plates are washed three times with 150 mM NaCl and radioactivity is then measured in a Microbeta Trilux reader.

A word on the IC50: it is the point on the concentration scale where inhibition reaches its midpoint.

Chain of Interleukin-1 receptor-associated kinase 1 (P51617 whole entry): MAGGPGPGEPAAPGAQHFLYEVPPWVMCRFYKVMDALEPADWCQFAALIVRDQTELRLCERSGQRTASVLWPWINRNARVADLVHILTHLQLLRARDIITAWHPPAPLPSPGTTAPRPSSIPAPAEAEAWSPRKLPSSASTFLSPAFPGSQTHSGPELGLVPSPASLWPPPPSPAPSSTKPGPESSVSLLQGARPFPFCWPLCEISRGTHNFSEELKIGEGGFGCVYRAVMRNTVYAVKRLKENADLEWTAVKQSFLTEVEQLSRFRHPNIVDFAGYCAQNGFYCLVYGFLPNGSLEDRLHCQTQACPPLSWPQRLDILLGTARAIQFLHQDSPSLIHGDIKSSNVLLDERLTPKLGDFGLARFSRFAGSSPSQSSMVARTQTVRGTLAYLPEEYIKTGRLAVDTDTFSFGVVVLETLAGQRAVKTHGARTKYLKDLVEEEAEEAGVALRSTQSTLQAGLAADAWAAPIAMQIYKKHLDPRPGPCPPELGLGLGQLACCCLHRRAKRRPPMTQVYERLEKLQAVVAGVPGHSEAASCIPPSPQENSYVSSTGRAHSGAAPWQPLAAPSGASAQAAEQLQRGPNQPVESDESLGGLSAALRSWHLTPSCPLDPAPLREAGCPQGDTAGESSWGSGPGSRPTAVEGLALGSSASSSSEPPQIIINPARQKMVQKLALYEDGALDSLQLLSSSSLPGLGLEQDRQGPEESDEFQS

Regarding `Cc1ccncc1-c1ccc(=O)n(Cc2cccc(C(=O)Nc3nc4ccccc4[nH]3)c2)n1`, the IC50 was less than 100 nM.

The values above are taken from ChEMBL document CHEMBL5725721, “Pyridazinone-amides derivatives” (2017).
